Laboratory results as given in patent US4327100A, “2-(Alkoxy-phenyl)-imidazo(4,5-b)pyridines and salts thereof” (Boehringer Ingelheim GmbH, priority 1979, dated 1982).

Tests used:
Assay type in all cases: in vivo
[1] = tested on: anesthetized cat; assay: Effect on blood pressure and positive inotropic activity in the anesthetized cat; details: 2.0 mg/kg i.v., average value, at least 3 cats
Method: 1. Determination of the effect on blood pressure and of the positive inotropic activity in the anesthetized cat
The test was performed on cats which were anesthetized with pentobarbital sodium (40 mg/kg i.p.). The animals breathed spontaneously. The arterial blood pressure was measured in the aorta abdominalis by a Statham pressure transducer (P 23 Dc). The positive inotropic effect was determined by measuring the pressure in the left ventricle by means of a catheter tip manometer (Millar PC 360 A). The contractility parameter (dp/dtmax) was registered by means of an analog differentiating circuit.
The test compound was injected into the vena femoralis. Physiological sodium chloride solution or polydiol 200 was used as solvent. Each substance was tested in at least 3 cats, dose 2 mg/kg i.v.

[2] = tested on: white mice; assay: Acute toxicity in white mice after oral administration; details: single oral dose 300 mg/kg, observation time 14 days
Method: (§1) The acute toxicity was determined in white mice after oral administration of a single dose of 300 mg/kg (observation time: 14 days).

[3] = as above; details: mouse, in vivo, single oral dose 300 mg/kg, observation time 14 days
Method: as §1

Row | Structure (SMILES) | Change in blood pressure, second value of the printed pair (diastolic, not labelled in the patent) [1] [mmHg] | animals died [2] | LD50 at 336 h [3] [mg/kg]
1 | COc1ccc(-c2nc3ncccc3[nH]2)c(OCC[S+]([O-])c2ccccc2)c1 (centres unmarked) [A, 2-[2-(2-Phenylsulfinyl-ethoxy)-4-methoxyphenyl]imidazo[4,5-b]pyridine] | 20 | – | –
2 | COc1ccc(-c2nc3ncccc3[nH]2)c(OCC[S+]([O-])c2ccc(Cl)cc2)c1 (centres unmarked) [B, 2-{2-[2-(4-Chlorophenylsulfinyl)-ethoxy]-4-methoxyphenyl}-imidazo-[4,5-b]pyridine] | 42 | 0 out of 6 | > 300
3 | COc1ccc(-c2nc3ncccc3[nH]2)c(OCC[S+]([O-])c2ccc(C)cc2)c1 (centres unmarked) [C, 2-{2-[2-(4-Methylphenylsulfinyl)-ethoxy]-4-methoxyphenyl}-imidazo[4,5-b]pyridine] | 45 | 0 out of 6 | > 300
4 | COc1ccc(-c2nc3ncccc3[nH]2)c(OCC[S+]([O-])c2cc(OC)c(OC)cc2C)c1 (centres unmarked) [D, 2-{2-[2-(2-Methyl-4,5-dimethoxyphenylsulfinyl)-ethoxy]-4-methoxyphenyl}-imidazo[4,5-b]pyridine] | 5 | 0 out of 6 | > 300
5 | COc1ccc(-c2nc3ncccc3[nH]2)c(OCC[S+]([O-])c2ccc([N+](=O)[O-])cc2)c1 (centres unmarked) [E, 2-{2-[2-(4-Nitrophenylsulfinyl)-ethoxy]-4-methoxyphenyl}-imidazo[4,5-b]pyridine] | 32 | – | –
